Experimental data taken from PubChem BioAssay AID624131 (National Center for Advancing Translational Sciences (NCATS), 2012).

System: mouse liver microsomes, LC-MS/MS half-life
Experiment: qHTS Assay to Find Inhibitors of T. brucei phosphofructokinase: Mouse Liver Microsome Stability
Details: at 1 µM; active compounds read high

**Q.** For `O=C(Cc1ccc(Cl)c(Cl)c1)Nc1ccc(S(=O)(=O)Nc2ccon2)cc1`, which half-life is on record?
**A.** The half-life was 3.85 h.
